Usually IC50 stands for the concentration needed to halve the response being measured.

One assay has as its target JAK1 kinase (Homo sapiens (Human), UniProt P23458). The settings on record: read-out: JAK1 IC50.
The target of the next assay is JAK2 kinase (Homo sapiens (Human), UniProt O60674). The settings on record: read-out: JAK2 IC50.
Sequence of JAK2 kinase (O60674 826-1132): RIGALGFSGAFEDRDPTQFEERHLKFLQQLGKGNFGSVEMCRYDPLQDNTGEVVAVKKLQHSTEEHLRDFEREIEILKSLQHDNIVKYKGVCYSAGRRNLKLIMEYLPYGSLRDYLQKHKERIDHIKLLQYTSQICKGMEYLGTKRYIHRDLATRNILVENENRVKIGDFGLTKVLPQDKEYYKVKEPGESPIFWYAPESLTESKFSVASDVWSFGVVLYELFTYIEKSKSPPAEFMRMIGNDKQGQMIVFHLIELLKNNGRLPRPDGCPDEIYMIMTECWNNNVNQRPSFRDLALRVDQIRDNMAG

Sequence of JAK1 kinase (P23458 850-1154): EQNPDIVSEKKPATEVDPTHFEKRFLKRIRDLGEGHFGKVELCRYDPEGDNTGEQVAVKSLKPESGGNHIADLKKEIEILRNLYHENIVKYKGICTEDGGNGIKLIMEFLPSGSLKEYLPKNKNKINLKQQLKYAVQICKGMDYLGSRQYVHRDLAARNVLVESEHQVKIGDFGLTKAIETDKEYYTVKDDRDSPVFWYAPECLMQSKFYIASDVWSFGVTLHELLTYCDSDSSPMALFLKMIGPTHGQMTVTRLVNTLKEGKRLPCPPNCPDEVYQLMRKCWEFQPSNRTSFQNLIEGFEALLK

On to `Cn1cc(Nc2ncc(C(N)=O)c(NCc3ccccc3)n2)cn1` [Example 1, 4-benzylamino-2-((1-methyl-1H-pyrazol-4-yl)amino)pyrimidin-5-carboxamide], for which the IC50 on JAK1 kinase was determined as 84.7 nM; on JAK2 kinase it was 9.5 nM. For the molecule `COc1ccccc1CNc1nc(Nc2cnn(C)c2)ncc1C(N)=O` [Example 2, 4-((2-methoxybenzyl)amino)-2-((1-methyl-1H-pyrazol-4-yl)amino)pyrimidin-5-carboxamide], the IC50 at JAK1 kinase amounted to 2.53 nM; at JAK2 kinase, 2.19 nM. On the same counts, the results for `COc1cccc(F)c1CNc1nc(Nc2cnn(C)c2)ncc1C(N)=O` [Example 3, 4-((2-fluoro-6-methoxybenzyl)amino)-2-((1-methyl-1H-pyrazol-4-yl)amino)pyrimidin-5-carboxamide] are 2.81 nM and 0.57 nM.

With `Cn1cc(Nc2ncc(C(N)=O)c(NCc3c(Cl)cccc3Cl)n2)cn1` [Example 5, 4-((2,6-dichlorobenzyl)amino)-2-((1-methyl-1H-pyrazol-4-yl)amino)pyrimidin-5-carboxamide], the IC50 on JAK1 kinase stood at 23.4 nM. For `COCCn1cc(Nc2ncc(C(N)=O)c(NCc3c(F)cccc3F)n2)cn1` [Example 6, 4-((2,6-difluorobenzyl)amino)-2-((1-(2-methoxyethyl)-1H-pyrazol-4-yl)amino)pyrimidin-5-carboxamide], the IC50 came to 29.9 nM at JAK1 kinase and 1.27 nM at JAK2 kinase. Take `COCCn1cc(Nc2ncc(C(N)=O)c(NCc3c(F)cccc3OC)n2)cn1` [Example 7, 4-((2-fluoro-6-methoxybenzyl)amino)-2-((1-(2-methoxyethyl)-1H-pyrazol-4-yl)amino)pyrimidin-5-carboxamide]: the concentration for half-maximal inhibition (IC50) at JAK1 kinase came to 9.18 nM; at JAK2 kinase it was 1.01 nM. In the case of `Cn1cc(Nc2ncc(C(N)=O)c(NCCCCCO)n2)cn1` [Example 8, 4-((5-hydroxypentyl)amino)-2-((1-methyl-1H-pyrazol-4-yl)amino)pyrimidin-5-carboxamide], the 50% inhibitory concentration (IC50) at JAK1 kinase was 80.3 nM.

For the molecule `CC(=O)N1CCC(CNc2nc(Nc3cnn(C)c3)ncc2C(N)=O)CC1` [Example 11, 4-(((1-acetylpiperidin-4-yl)methyl)amino)-2-((1-methyl-1H-pyrazol-4-yl)amino)pyrimidin-5-carboxamide], the concentration for half-maximal inhibition (IC50) on JAK2 kinase amounted to 33.3 nM. Take `CC(=O)N1CCC(CCNc2nc(Nc3cnn(C)c3)ncc2C(N)=O)CC1` [Example 12, 4-((2-(1-acetylpiperidin-4-yl)ethyl)amino)-2-((1-methyl-1H-pyrazol-4-yl)amino)pyrimidin-5-carboxamide]: on JAK1 kinase, the IC50 amounted to 352 nM.

As for `CCn1cc(Nc2ncc(C(N)=O)c(NCc3c(F)cccc3F)n2)cn1` [Example 132, 4-[(2,6-difluoro-benzyl)amino]-2-[(1-ethyl-1H-pyrazol-4-yl)amino]pyrimidin-5-carboxamide], the concentration for half-maximal inhibition (IC50) came to 14.3 nM on JAK1 kinase and 0.51 nM at JAK2 kinase. For `CC(C)n1cc(Nc2ncc(C(N)=O)c(NCc3c(F)cccc3F)n2)cn1` [Example 133, 4-[(2,6-difluoro-benzyl)amino]-2-[(1-isopropyl-1H-pyrazol-4-yl)amino]pyrimidin-5-carboxamide], the values for the IC50 at JAK1 kinase and at JAK2 kinase were 22.8 nM and 0.47 nM, respectively.

In the case of `NC(=O)c1cnc(Nc2cnn(C3CC3)c2)nc1NCc1c(F)cccc1F` [Example 134, 4-[(2,6-difluoro-benzyl)amino]-2-[(1-cyclopropyl-1H-pyrazol-4-yl)amino]pyrimidin-5-carboxamide], the IC50 at JAK2 kinase was found to be 1.19 nM. As to `NC(=O)c1cnc(Nc2cnn(C3CCC3)c2)nc1NCc1c(F)cccc1F` [Example 135, 4-[(2,6-difluoro-benzyl)amino]-2-[(1-cyclobutyl-1H-pyrazol-4-yl)amino]pyrimidin-5-carboxamide], the results for the IC50 on JAK1 kinase and on JAK2 kinase were 30.3 nM and 0.61 nM, respectively. For the molecule `NC(=O)c1cnc(Nc2cnn(C3CCOCC3)c2)nc1NCc1c(F)cccc1F` [Example 137, 4-[(2,6-difluoro-benzyl)amino]-2-[[1-(tetra hydro-2H-pyran-4-yl)-1H-pyrazol-4-yl)amino]pyrimidin-5-carboxamide], the IC50 was 16.4 nM on JAK1 kinase and 0.27 nM on JAK2 kinase. Consider `NC(=O)c1cnc(Nc2cnn(CC3CCCO3)c2)nc1NCc1c(F)cccc1F` (centres unmarked) [Example 138, 4-[(2,6-difluoro-benzyl)amino]-2-[[1-((tetrahydro-furan-2-yl)methyl)-1H-pyrazol-4-yl]amino]pyrimidin-5-carboxamide], for which the IC50 on JAK1 kinase turned out to be 88.9 nM; at JAK2 kinase it was 1.24 nM. For `CC(C)(O)Cn1cc(Nc2ncc(C(N)=O)c(NCc3c(F)cccc3F)n2)cn1` [Example 145, 4-[(2,6-difluoro-benzyl)amino]-2-[[1-(2-hydroxy-2-methylpropyl)-1H-pyrazol-4-yl]amino]pyrimidin-5-carboxamide], the values for the IC50 on JAK1 kinase and at JAK2 kinase were 20.3 nM and 2.08 nM, respectively. Turning to `CCn1cc(Nc2ncc(C(N)=O)c(NCc3c(F)cccc3OC)n2)cn1` [Example 150, 4-[(2-fluoro-6-methoxybenzyl)amino]-2-[(1-ethyl-1H-pyrazol-4-yl)amino]pyrimidin-5-carboxamide], at JAK1 kinase, the IC50 came to 3.22 nM. For `COc1cccc(F)c1CNc1nc(Nc2cnn(C(C)C)c2)ncc1C(N)=O` [Example 151, 4-[(2-fluoro-6-methoxybenzyl)amino]-2-[(1-isopropyl-1H-pyrazol-4-yl)amino]pyrimidin-5-carboxamide], the results for the IC50 at JAK1 kinase and on JAK2 kinase were 2.77 nM and 0.61 nM, respectively. For the molecule `COc1ccccc1CNc1nc(Nc2cnn(CCO)c2)ncc1C(N)=O` [Example 172, 4-[(2-methoxybenzyl)amino]-2-[[1-(2-hydroxyethyl)-1H-pyrazol-4-yl]amino]pyrimidin-5-carboxamide], the IC50 at JAK1 kinase was found to be 15.6 nM; on JAK2 kinase it was 0.95 nM. With `Cc1cccc(C)c1CNc1nc(Nc2cnn(CCO)c2)ncc1C(N)=O` [Example 174, 4-[(2,6-dimethyl-benzyl)amino]-2-[[1-(2-hydroxy-ethyl)-1H-pyrazol-4-yl]amino]pyrimidin-5-carboxamide], the concentration for half-maximal inhibition (IC50) at JAK1 kinase was 54.7 nM; at JAK2 kinase, 3.06 nM. As for `C=CCCNc1nc(Nc2cnn(C(C)(C)C)c2)ncc1C(N)=O` [Example 228, 4-(but-3-en-1-ylamino)-2-((1-(tert-butyl)-1H-pyrazol-4-yl)amino)pyrimidin-5-carboxamide], on JAK2 kinase, the IC50 is 13.9 nM. Regarding `C=C(C)CNc1nc(Nc2cnn(C(C)(C)C)c2)ncc1C(N)=O` [Example 229, 2-((1-tert-butyl-1H-pyrazol-4-yl)amino)-4-((2-methylallyl)amino)pyrimidin-5-carboxamide], the IC50 at JAK2 kinase worked out at 2.8 nM. As for `CC(C)=CCNc1nc(Nc2cnn(C(C)(C)C)c2)ncc1C(N)=O` [Example 230, 2-((1-(tert-butyl)-1H-pyrazol-4-yl)amino)-4-((3-methylbut-2-en-1-yl)amino)pyrimidin-5-carboxamide], the half-maximal inhibitory concentration (IC50) on JAK1 kinase was found to be 28.1 nM; on JAK2 kinase, 1.7 nM. Regarding `C=C(C)CNc1nc(Nc2cnn(C3CCOCC3)c2)ncc1C(N)=O` [Example 232, 4-((2-methylallyl)amino)-2-((1-(tetrahydro-2H-pyran-4-yl)-1H-pyrazol-4-yl)amino)pyrimidin-5-carboxamide], the IC50 on JAK1 kinase is 34.4 nM; at JAK2 kinase, 2 nM.

As to `CC(C)=CCNc1nc(Nc2cnn(C3CCOCC3)c2)ncc1C(N)=O` [Example 233, 4-((3-methylbut-2-en-1-yl)amino)-2-((1-(tetrahydro-2H-pyran-4-yl)-1H-pyrazol-4-yl)amino)pyrimidin-5-carboxamide], the half-maximal inhibitory concentration (IC50) came to 6.5 nM on JAK1 kinase and 0.9 nM on JAK2 kinase.

Turning to `C=CCCNc1nc(Nc2cnn(C3CCOCC3)c2)ncc1C(N)=O` [Example 234, 4-(but-3-en-1-ylamino)-2-((1-(tetrahydro-2H-pyran-4-yl)-1H-pyrazol-4-yl)amino)pyrimidin-5-carboxamide], the IC50 on JAK1 kinase worked out at 31 nM; on JAK2 kinase it was 1.2 nM. For `CC(C)(C)n1cc(Nc2ncc(C(N)=O)c(NCC3CC=CC3)n2)cn1` [Example 236, 2-((1-(tert-butyl)-1H-pyrazol-4-yl)amino)-4-((cyclopent-3-en-1-ylmethyl)amino)pyrimidin-5-carboxamide], the IC50 on JAK1 kinase is 7.6 nM; on JAK2 kinase it was 2.6 nM. Consider `C=CCNc1nc(Nc2cnn(C(C)(C)C)c2)ncc1C(N)=O` [Example 238, 4-(allylamino)-2-((1-(tert-butyl)-1H-pyrazol-4-yl)amino)pyrimidin-5-carboxamide], for which the IC50 on JAK1 kinase was 11.5 nM; at JAK2 kinase it was 3.6 nM. On the same counts, the results for `C=C(C)CCNc1nc(Nc2cnn(C(C)(C)C)c2)ncc1C(N)=O` [Example 242, 2-((1-tert-butyl-1H-pyrazol-4-yl)amino)-4-((3-methylbut-3-en-1-yl)amino)pyrimidin-5-carboxamide] are 8 nM and 1.5 nM. On the same counts, the results for `C=C(C)CCCNc1nc(Nc2cnn(C(C)(C)C)c2)ncc1C(N)=O` [Example 244, 2-((1-tert-butyl-1H-pyrazol-4-yl)amino)-4-((4-methylpent-4-en-1-yl)amino)pyrimidin-5-carboxamide] are 10.8 nM and 3 nM.

As to `CC(C)=CCCCNc1nc(Nc2cnn(C(C)(C)C)c2)ncc1C(N)=O` [Example 245, 2-((1-tert-butyl-1H-pyrazol-4-yl)amino)-4-((5-methylhex-4-en-1-yl)amino)pyrimidin-5-carboxamide], the IC50 on JAK1 kinase is 40.8 nM; at JAK2 kinase, 16.9 nM. As to `CC(C)C/C=C/CNc1nc(Nc2cnn(C(C)(C)C)c2)ncc1C(N)=O` [Example 246, (E)-2-((1-tert-butyl-1H-pyrazol-4-yl)amino)-4-((5-methylhex-2-en-1-yl)amino)pyrimidin-5-carboxamide], the figures for the concentration for half-maximal inhibition (IC50) at JAK1 kinase and at JAK2 kinase were 345 nM and 42.5 nM, respectively.

These data come from patent publication US11344549B2 (priority 2017, dated 2022).
